# Laboratory results reported in PubChem BioAssay (NCI).
# Values joined by “and” are separate entries in the source; they are usually repeats but may differ in a detail not shown here. Equal entries are not always repeated.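 Briefly, cells in 96-well plates were exposed to five compound concentrations for 48 h, and endpoints were estimated by linear interpolation. GI50 marks 50% less growth. TGI marks complete inhibition of growth.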
# Experiments:
# Experiment in all cases: NCI tumour cell line growth inhibition, 48 h
# UACC-257 melanoma = system: UACC-257 melanoma
# T-47D breast = system: T-47D breast
# DU-145 prostate = system: DU-145 prostate
# SK-MEL-28 melanoma = system: SK-MEL-28 melanoma
# COLO 205 colon = system: COLO 205 colon
# HS 578T breast = system: HS 578T breast
# TK-10 renal = system: TK-10 renal
# SW-620 colon = system: SW-620 colon
# OVCAR-5 ovarian = system: OVCAR-5 ovarian
# RXF 393 renal = system: RXF 393 renal
# HOP-92 NSCLC = system: HOP-92 NSCLC
Structure (SMILES),TGI (UACC-257 melanoma) [µM],TGI (T-47D breast) [µM],TGI (DU-145 prostate) [µM],TGI (SK-MEL-28 melanoma) [µM],TGI (COLO 205 colon) [µM],TGI (HS 578T breast) [µM],TGI (TK-10 renal) [µM],TGI (SW-620 colon) [µM],TGI (OVCAR-5 ovarian) [µM],GI50 (RXF 393 renal),TGI (RXF 393 renal) [µM],TGI (HOP-92 NSCLC) [µM],GI50 (UACC-257 melanoma) [µM],GI50 (DU-145 prostate) [µM],GI50 (HOP-92 NSCLC) [µM],GI50 (SK-MEL-28 melanoma) [µM],GI50 (COLO 205 colon) [µM],GI50 (HS 578T breast) [µM],GI50 (TK-10 renal) [µM],GI50 (SW-620 colon) [µM]
O=C(/C=C/c1cccs1)c1ccc(Cl)s1,> 100,> 100,> 100,59.3,> 10,> 100,> 100,51.7,> 100,,,,,,,,,,,
N#Cc1c(-c2ccccc2)c(C#N)c(=S)n(C2OCC(O)C(O)C2O)c1N (stereo unspecified),> 100,> 100,> 100,> 100,,> 100,> 100,> 100,> 100,26.7 µM and > 100 µM,> 100,,,,,,,,,
COc1cc2c(cc1O)-c1c(OC)c(O)cc3c1C(C2)N(C)CC3 (stereo unspecified),> 100,> 100,> 100,,> 100,> 100,> 100,> 100,> 100,,> 100,> 100,,,,,,,,
Cc1n(CC(C)C)c2c([n+]1CC(=O)c1ccc([N+](=O)[O-])cc1)C(=O)c1ccccc1C2=O,0.0293,,,0.902,< 0.01,,,< 0.036,0.0698,,,0.128,,,,,,,,
O=C1CSC(c2ccccc2[N+](=O)[O-])N1c1ccc(-n2c(-c3ccccc3)nc3ccccc3c2=O)cc1 (stereo unspecified),> 100,98.4,> 100,> 100,> 100,54.8,> 100,> 100,> 100,,,60.2,,,,,,,,
Cc1ccc(C(=O)c2[nH]c(Nc3ccc(Cl)cc3)c(C(=S)Nc3ccccc3)c2N)cc1,43.7,> 100,24.8,14.5,2.84,,16.8,37.7,40.9,,17.4,28,,,,,,,,
N#Cc1nc(NC(=O)c2ccccc2)sc1N,> 10,> 10,> 10,> 10,> 10,,> 10,> 10,> 10,,> 10,> 10,,,,,,,,
Nc1nc(NCC2(CO)CC(CCc3ccccc3)C2)cc(=O)[nH]1 (stereo unspecified),> 100,> 100,> 100,> 100,> 100,> 100,,> 100,> 100,,> 100,> 100,,,,,,,,
Oc1c2c(c3c4c1N=CC=4CCN=3)C1(C=C(Br)C(O)C(Br)=C1)CCN2 (stereo unspecified),1.27,,,21.5,0.418,,,4.19,4.49,,7.57,8.08,,,,,,,,
COC(=O)C1CCC[C@H]2C(CO)=C(C)C(=O)[C@@H]12 (stereo partly specified),> 100,,,> 100,> 100,,> 100,> 100,> 100,,> 100,> 100,,,,,,,,
O=C1C(Cl)C(c2cccc(Br)c2)N1c1c(O)c(Cl)cc(Br)c1Cl (stereo unspecified),43.9,44.6,32.9,,20.8,24,51.4,41.4,56.5,,24.3,29,,,,,,,,
Cc1cccc(Nc2nc(NNC(=O)Cc3ccccc3)nc(NNC(=O)c3ccncc3)n2)c1,> 10,> 10,> 10,> 10,> 10,> 10,> 10,> 10,,,> 10,> 10,,,,,,,,
C[N+]1(CCCC[N+]2(C)CCCCCCC2)CCCCCCC1,> 100,> 100,> 100,> 100,,60.4,> 100,> 100,> 100,,> 100,> 100,,,,,,,,
COc1cc(/C=C2/C(=O)N=C(NC(C)=O)N2C)ccc1OC(C)=O,> 100,> 100,> 100,> 100,> 100,,> 100,> 100,> 100,,,> 100,,,,,,,,
c1ccc(C2=NN[C@H](c3cn(-c4ccccc4)nc3-c3ccccc3)C2)cc1,> 100,,> 100,> 100,> 100,7.45,7.74,> 100,,2.58 µM,9.85,8.07,> 100,71.8,2.72,4.89,6.55,2.63,2.82,9.34
CCCCCCCSCC1OC(n2cnc3c(N)ncnc32)C(O)C1O (stereo unspecified),56.9,,,> 100,28.3,,> 100,46.5,> 100,,> 100,58,,,,,,,,
Clc1ccc2c(Cl)nc(-c3ccccc3)nc2c1,> 100,,,> 100,> 100,,> 100,> 100,> 100,,71.2,,,,,,,,,
COC(=O)C(CCSc1ccccc1)C(=O)OC,> 100,> 100,,> 100,> 100,> 100,,> 100,> 100,,> 100,> 100,,,,,,,,
COc1cc(O)c2c(c1O)C(=O)c1cc(C)ncc1C2=O,36.6,,,> 50,> 50,,> 50,> 50,> 50,,> 50,,,,,,,,,
C=CCOCn1ccc(NC(=O)c2ccccc2)nc1=O,> 100,> 100,> 100,> 100,> 100,> 100,> 100,> 100,,,,,,,,,,,,
Cc1ccc(Nc2cc(=O)[nH]c(=O)[nH]2)cc1CS,> 100,> 100,,> 100,> 100,> 100,> 100,> 100,> 100,,> 100,> 100,,,,,,,,
COC(=O)C1=C(OC(=O)/C(=C/c2c(F)cccc2F)c2ccccc2)C(C(=O)OC)[C@@]2(O)[C@@H](C(=O)OC)[C@H](C)C[C@@H]1[C@@H]2C(=O)OC (stereo partly specified),> 100,> 100,> 100,> 100,> 100,,> 100,> 100,> 100,,> 100,,,,,,,,,
COC(=O)c1cn(CCCCO)nn1,> 100,> 100,> 100,> 100,> 100,> 100,> 100,> 100,,,> 100,> 100,,,,,,,,

Structure (SMILES),TGI (UACC-257 melanoma) [µM],TGI (T-47D breast) [µM],TGI (DU-145 prostate) [µM],TGI (SK-MEL-28 melanoma) [µM],TGI (COLO 205 colon) [µM],TGI (HS 578T breast) [µM],TGI (TK-10 renal) [µM],TGI (SW-620 colon) [µM],TGI (OVCAR-5 ovarian) [µM],GI50 (RXF 393 renal),TGI (RXF 393 renal) [µM],TGI (HOP-92 NSCLC) [µM],GI50 (UACC-257 melanoma) [µM],GI50 (DU-145 prostate) [µM],GI50 (HOP-92 NSCLC) [µM],GI50 (SK-MEL-28 melanoma) [µM],GI50 (COLO 205 colon) [µM],GI50 (HS 578T breast) [µM],GI50 (TK-10 renal) [µM],GI50 (SW-620 colon) [µM]
Cc1nc2ccc(S(=O)(=O)Nc3ccccc3Cl)cc2c(=O)n1NC(=O)CNc1ccccc1Cl,> 100,,> 100,> 100,> 100,> 100,> 100,> 100,> 100,,,> 100,,,,,,,,
NN/C(=N\S(=O)(=O)c1cccc2nsnc12)Nc1ccc(Cl)cc1,> 100,> 100,> 100,> 100,> 100,,> 100,> 100,> 100,,> 100,> 100,,,,,,,,
Nc1ccc(-c2nc3ccc(Cc4ccc5nc(-c6ccc(N)cc6)oc5c4)cc3o2)cc1,> 100,,> 100,> 100,> 100,,> 100,> 100,> 100,,> 100,> 100,,,,,,,,
Cc1ccc(S(=O)(=O)c2ccsc2NC(=O)c2ccccc2)cc1,> 100,> 100,> 100,> 100,> 100,76.2,> 100,> 100,> 100,,,> 100,,,,,,,,
O=C(O)c1nc2cc(C(F)(F)F)ccc2[nH]c1=O,> 100,> 100,> 100,> 100,> 100,> 100,> 100,> 100,> 100,,,> 100,,,,,,,,
O=C(Oc1ccc(OC(Oc2ccccc2)c2ccccc2)cc1)c1ccccc1 (stereo unspecified),> 31.6,> 100,> 31.6,31,> 31.6,> 31.6,> 31.6,> 31.6,> 100,,> 100,,,,,,,,,
CN(C)C(=O)C(F)(F)C(c1ccc(C(F)(F)F)cc1)C1C(=O)N(C)C(=O)N(C)C1=O (stereo unspecified),> 100,> 100,> 100,> 100,> 100,,> 100,> 100,> 100,,> 100,> 100,,,,,,,,
Nc1ccn(CC(CO)CC(c2ccccc2)P(=O)(O)O)c(=O)n1 (stereo unspecified),> 100,,,> 100,> 100,,> 100,> 100,> 100,,> 100,> 100,,,,,,,,
C=CCN1C[C@@H](C)N([C@@H](c2ccccc2)c2ccc(C(=O)N(CC)CC)cc2)C[C@@H]1C,,> 100,> 100,> 100,> 100,> 100,,> 100,> 100,,,89,,,,,,,,
Cc1cn(C2CC(N=[N+]=[N-])C(C(=O)O)O2)c(=O)[nH]c1=O (stereo unspecified),> 100,,> 100,,> 100,> 100,> 100,> 100,> 100,,> 100,> 100,,,,,,,,
ClCCCC1COc2ccccc2O1 (stereo unspecified),> 100,,> 100,> 100,> 100,,> 100,> 100,> 100,,> 100,> 100,,,,,,,,
COc1ccc(N2C(=O)C3c4[nH]c5cc(Cl)ccc5c4C4CCC(C(C)(C)C)CC4C3C2=O)cc1 (stereo unspecified),> 100,> 100,> 100,> 100,> 100,> 100,> 100,> 100,,,> 100,,,,,,,,,
CCCCCCCCCCCCCCC[C@@H](O)C[N+](C)(C)CCO,49.2,55.6,48.2,52.5,14.6,7.53,2.86,> 45.4,11.4,,,> 39.7,,,,,,,,
O=C1c2ccccc2-n2c1nc1cc(Cl)ccc1c2=O,29.1,48.8,> 100,,> 100,> 100,> 100,,> 100,,> 100,> 100,,,,,,,,
CC1=C(c2ccc(C)cc2)NC(=S)C(C)C(c2ccc(C)cc2)=N1 (stereo unspecified),> 100,> 100,> 100,> 100,> 100,,> 100,> 100,> 100,,70.9,,,,,,,,,
N#Cc1nc(C2SCCCS2)oc1N,> 100,,> 100,> 100,,> 100,> 100,> 100,> 100,,,> 100,,,,,,,,
Cc1cccc2c(N)c3cccc(C(=O)NCCN4CCOCC4)c3nc12,7.81,,11.6,6.29,2.49,0.43,18.6,26.1,8.7,,2.62,23.2,,,,,,,,
COc1ccc2[nH]cc(CN3CCC(CO)(c4ccccc4)CC3)c2c1,37.2,46.5,> 100,33.3,40.3,70.9,> 100,47.8,> 100,,> 100,,,,,,,,,
CCCC(=O)[O-].CCCC(=O)[O-].N.N.N.N.[Co+3].[O-][Cl+3]([O-])([O-])[O-],> 100,,,> 100,> 100,,> 100,> 100,> 100,,,> 100,,,,,,,,
Cc1ccc(-c2n[nH]c(=O)n2N2C(=O)C=CC2=O)cc1,> 100,> 100,> 100,,> 100,> 100,> 100,,> 100,,> 100,,,,,,,,,
O=c1c2ccccc2n2n1Cc1ccccc1C2,> 100,> 100,> 100,> 100,> 100,> 100,> 100,> 100,,,> 100,> 100,,,,,,,,
COC1CC(n2ccc(=O)[nH]c2=O)OC1CO (stereo unspecified),> 100,> 100,> 100,> 100,> 100,,,> 100,> 100,,> 100,> 100,,,,,,,,
